Measured values from US20230255884A1, “FINISHED FIBROUS SRUCTURES AND METHODS OF THEIR USE AND PREPARATION” (CLEXIO BIOSCIENCES LTD., priority 2019, published 2023).

Experiments:
Format in all cases: physicochemical
[1] = Example 21: % Add on by finish composition, 60° C., 1 h, 91.4% polyamide/8.6% elastane
[2] = Example 22: % Add on by humectant and permeation enhancer concentration, 60° C., 1 h, squeezed; details: 3% lidocaine
[3] = Example 11: % Add on from aqueous lidocaine without excipients, 60° C., 1 h, 91.4% polyamide/8.6% elastane
[4] = Example 9: % Add on of 91.4% polyamide/8.6% elastane after 1 h in aqueous 10% PEG 400, 10% propylene glycol, 2% Polysorbate 80 with lidocaine, dried overnight at RT
[5] = 3% lidocaine, 2% Polysorbate 80
[6] = 3% lidocaine, 10% PEG 400, 2% Polysorbate 80
[7] = 3% lidocaine, 10% PEG 400, 10% propylene glycol
[8] = 3% lidocaine, 10% PEG 400, 10% propylene glycol, 2% Polysorbate 80
[9] = 3% lidocaine, 10% propylene glycol
[10] = 3% lidocaine, 10% propylene glycol, 2% Polysorbate 80

## CCN(CC)CC(=O)Nc1c(C)cccc1C [Lidocaine, lidocaine]
[1]; 3% lidocaine only
  Mean % Add on (dried at RT): 37.25%
  Mean % Add on (squeezed): 20.27%
[1]; [5]
  Mean % Add on (dried at RT): 19.10%
  Mean % Add on (squeezed): 14.97%
[1]; 3% lidocaine, 10% PEG 400
  Mean % Add on (dried at RT): 54.02%
  Mean % Add on (squeezed): 32.03%
[1]; [6]
  Mean % Add on (dried at RT): 42.88%
  Mean % Add on (squeezed): 24.91%
[1]; [7]
  Mean % Add on (dried at RT): 56.37%
  Mean % Add on (squeezed): 30.01%
[1]; [8]
  Mean % Add on (dried at RT): 40.92%
  Mean % Add on (squeezed): 25.73%
[1]; [9]
  Mean % Add on (dried at RT): 34.89%
  Mean % Add on (squeezed): 21.14%
[1]; [10]
  Mean % Add on (dried at RT): 19.34%
  Mean % Add on (squeezed): 14.48%
[2]; 2% PEG 400, 2% Polysorbate 80
  Mean % Add on: 16.59%
[2]; 2% propylene glycol, 2% Polysorbate 80
  Mean % Add on: 14.96%
[2]; 8% PEG 400, 2% Polysorbate 80
  Mean % Add on: 26.06%
[2]; 8% propylene glycol, 2% Polysorbate 80
  Mean % Add on: 15.93%
[2]; 15% PEG 400, 2% Polysorbate 80
  Mean % Add on: 30.96%
[2]; 15% propylene glycol, 2% Polysorbate 80
  Mean % Add on: 14.84%
[2]; 20% PEG 400, 2% Polysorbate 80
  Mean % Add on: 37.95%
[2]; 20% propylene glycol, 2% Polysorbate 80
  Mean % Add on: 16.03%
[3]; lidocaine 0.1% w/w, dried at RT
  % Add on: 1.03%
[3]; lidocaine 0.1% w/w, squeezed
  % Add on: 1.09%
[3]; lidocaine 0.4% w/w, dried at RT
  % Add on: 2.86%
[3]; lidocaine 0.4% w/w, squeezed
  % Add on: 2.91%
[3]; lidocaine 1% w/w, dried at RT
  % Add on: 8.03%
[3]; lidocaine 1% w/w, squeezed
  % Add on: 7.57%
[3]; lidocaine 3% w/w, dried at RT
  % Add on: 22.17%
[3]; lidocaine 3% w/w, squeezed
  % Add on: 28.01%
[3]; lidocaine 5% w/w, dried at RT
  % Add on: 31.61%
[3]; lidocaine 5% w/w, squeezed
  % Add on: 39.06%
[3]; lidocaine 10% w/w, dried at RT
  % Add on: 102.39%
[3]; lidocaine 10% w/w, squeezed
  % Add on: 30.39%
[3]; lidocaine 15% w/w, dried at RT
  % Add on: 62.68%
[3]; lidocaine 15% w/w, squeezed
  % Add on: 98.46%
[3]; lidocaine 25% w/w, dried at RT
  % Add on: 56.33%
[3]; lidocaine 25% w/w, squeezed
  % Add on: 148.02%
[4]; lidocaine 0.1% (w/w), 2-8° C.
  % Add on: 25.93%
[4]; lidocaine 0.1% (w/w), 50° C.
  % Add on: 32.73%
[4]; lidocaine 0.1% (w/w), 80° C.
  % Add on: 32.20%
[4]; lidocaine 0.1% (w/w), RT
  % Add on: 23.91%
[4]; lidocaine 0.5% (w/w), 2-8° C.
  % Add on: 31.48%
[4]; lidocaine 0.5% (w/w), 50° C.
  % Add on: 29.79%
[4]; lidocaine 0.5% (w/w), 80° C.
  % Add on: 23.91%
[4]; lidocaine 0.5% (w/w), RT
  % Add on: 26.79%
[4]; lidocaine 1% (w/w), 2-8° C.
  % Add on: 34.00%
[4]; lidocaine 1% (w/w), 50° C.
  % Add on: 64.44%
[4]; lidocaine 1% (w/w), 80° C.
  % Add on: 32.14%
[4]; lidocaine 1% (w/w), RT
  % Add on: 33.96%
[4]; lidocaine 3% (w/w), 2-8° C.
  % Add on: 40.00%
[4]; lidocaine 3% (w/w), 50° C.
  % Add on: 56.52%
[4]; lidocaine 3% (w/w), 80° C.
  % Add on: 48.98%
[4]; lidocaine 3% (w/w), RT
  % Add on: 43.75%
[4]; lidocaine 5% (w/w), 2-8° C.
  % Add on: 60.00%
[4]; lidocaine 5% (w/w), 50° C.
  % Add on: 46.00%
[4]; lidocaine 5% (w/w), 80° C.
  % Add on: 64.91%
[4]; lidocaine 5% (w/w), RT
  % Add on: 47.27%
[4]; lidocaine 8% (w/w), 2-8° C.
  % Add on: 50.00%
[4]; lidocaine 8% (w/w), 50° C.
  % Add on: 64.15%
[4]; lidocaine 8% (w/w), 80° C.
  % Add on: 89.13%
[4]; lidocaine 8% (w/w), RT
  % Add on: 58.00%
[4]; lidocaine 10% (w/w), 2-8° C.
  % Add on: 55.77%
[4]; lidocaine 10% (w/w), 50° C.
  % Add on: 74.55%
[4]; lidocaine 10% (w/w), 80° C.
  % Add on: 78.72%
[4]; lidocaine 10% (w/w), RT
  % Add on: 102.04%
